How the values were obtained:
[1] = tested on: Splenocyte; test: Inhibition of concanavalin A-stimulated mouse splenocyte proliferation by MTT method; format: functional, cell-based
[2] = tested on: Splenocyte; test: Inhibition of LPS-stimulated mouse splenocyte proliferation by MTT method; format: functional, cell-based

Structure (SMILES) | Activity [1] | Activity [2]
CNc1ccccc1C(=O)O[C@H](C)[C@]1(O)CC[C@@]2(O)[C@]1(C)[C@H](OC(C)=O)C[C@@H]1[C@@]3(C)CC[C@H](O[C@H]4C[C@H](OC)[C@H](OC5C[C@H](OC)[C@H](O[C@@H]6O[C@H](C)[C@@H](O[C@@H]7O[C@H](CO)[C@@H](O)[C@H](O)[C@H]7O)[C@@H](OC)[C@H]6O)[C@@H](C)O5)[C@@H](C)O4)C[C@@H]3CC[C@]12O (some centres undefined) | Dose-dependent effect | Dose-dependent effect
CO[C@H]1[C@@H](O)[C@H](O[C@H]2[C@@H](OC)C[C@H](O[C@H]3[C@@H](OC)C[C@H](O[C@H]4CC[C@@]5(C)C(=CC[C@]6(O)C5C[C@@H](OC(=O)c5cccnc5)[C@@]5(C)[C@]6(O)CC[C@@]5(O)[C@@H](C)OC(=O)/C=C/c5ccccc5)C4)O[C@@H]3C)O[C@@H]2C)O[C@H](C)[C@H]1O[C@@H]1O[C@H](CO)[C@@H](O)[C@H](O)[C@H]1O (some centres undefined) | Dose-dependent effect | Dose-dependent effect

Reference: ChEMBL document CHEMBL1149341, “Two novel immunosuppressive pregnane glycosides from the roots of Stephanotis mucronata” (Bioorg Med Chem Lett, 2006)
